Assay results reported in patent publication US20240425460A1, “CRYSTAL FORM OF NIROGACESTAT DIHYDROBROMIDE, AND PREPARATION METHOD THEREFOR, AND USE THEREOF” (CRYSTAL PHARMACEUTICAL (SUZHOU) CO., LTD., priority 2022, published 2024).

How the values were obtained:
[1] = Density and flowability (bulk/tapped density, compressibility index); assay type: physicochemical; settings: for Compressibility index: c=(ρf−ρ0)/ρf; for Tapped density (ρf): tapped 1250 times
Protocol: About 300-500 mg of powder were added into a 5-mL measuring cylinder, and a bulk density was recorded. Then the powder was tapped for 1250 times by ZS-2E tap density tester to make it in the tightest state and the tapped volume was recorded. The bulk density (ρ0) and tapped density (ρf) were calculated.
Compressibility also known as the Compressibility index or Carr index is usually utilized to evaluate the flowability of powder or granules during the drug product process. Compressibility index was calculated according to c=(ρf−ρ0)/ρf. According to criteria of flowability recorded in ICH Q4B Annex 13, the smaller the compressibility index, the better the flowability.

[2] = Particle size distribution (Mastersizer 3000, wet mode); assay type: physicochemical
Protocol: The particle size distribution data in the present disclosure were acquired by a Mastersizer 3000 laser particle size analyzer of Malvern. The test was carried out in wet mode, using a Hydro MV dispersion device, and the dispersant was Isopar G. The parameters are as follows:
Form CSII and prior art Form A were added into glass vials with the Isopar G (containing 0.2% lecithin). The mixture was mixed thoroughly and transferred into the Hydro MV dispersing device. The experiment was started when the obscuration is in appropriate range. The particle size distributions were tested before and after 60 seconds of ultrasonication to obtain the average particle size, D10 (the portion of particles with diameters below this value is 10%), D50 (the portion of particles with diameters below this value is 50%) and D90 (the portion of particles with diameters below this value is 90%), the results are listed in Table 9.

[3] = Compressibility (tensile strength after compression at 3 KN); assay type: physicochemical; settings: 60 mg, Φ6 mm round tooling, T=2H/πDL
Protocol: ENERPAC manual tablet press was used for compression. 60 mg of Form CSII and prior art Form A were weighed and added into the dies of a Φ6 mm round tooling, compressed at 3 KN manually, then stored at room temperature for 24 h until elastic recovery is complete, diameter (D) and thickness (L) were tested with a caliper. Hardness (H) was tested with an intelligent tablet hardness tester. Tensile strength of the powder was calculated with the following formula: T=2H/πDL. […] Under a certain force, the greater the tensile strength, the better the compressibility.

physchem = assay: physchem
Protocol: 1.9 mg of Form CSII was weighted into a glass vial, then water was added dropwise at 37° C. until the solid is completely dissolved. The maximum insoluble volume and minimum dissolved volume of the sample in water were recorded, and the solubility of Form CSII in water (mg/mL) was calculated.

[4] = Morphology by polarized light microscopy; assay type: physicochemical; settings: PLM, magnification 100 times
Protocol: PLM data in the present disclosure were acquired by Sunny CX40P polarizing microscope.
The parameter of the PLM method of the present disclosure is as follows: • Magnification times: 100
About 0.5 mg Form CSII and prior art Form A were placed on a glass slide, a small amount of immersion oil was added to disperse the sample, and then the system was covered with a coverslip.
About 0.5 mg Form CSIII and prior art Form A were placed on a glass slide, a small amount of immersion oil was added to disperse the sample, and then the system was covered with a coverslip.

[5] = for Solubility in FaSSIF / Solubility in FeSSIF: 1 h
Source text: When solubility test is used to predict the in vivo performance of a drug, it is critical to simulate in vivo conditions as closely as possible. Fasted state simulated intestinal fluid (FaSSIF) and fed state simulated intestinal fluid (FeSSIF) can be used to simulate the conditions in vivo and predict the effects of eating, thus solubilities in these media are closer to those in vivo.
A certain amount of Form CSII and prior art Form A were suspended into FeSSIF and FaSSIF to get saturated solutions at 37° C. After equilibrated for 1 h, concentrations of the saturated solutions were measured by HPLC.
A certain amount of Form CSIII and Form A in the prior art were suspended into FeSSIF and FaSSIF to get saturated solutions at 37° C. After equilibrated for 1 h, concentrations of the saturated solutions were measured by HPLC.

[6] = Stability of crystalline form in formulation process (XRPD); assay type: physicochemical; settings: pre-blending, simulated dry granulation, tableting 5 kN
Protocol: The XRPD of the blank mixed powder and the samples before and after the formulation was tested.

[7] = Physical stability upon mechanical force (tableting, XRPD); assay type: physicochemical; settings: 5 kN pressure for 10 s
Source text: A certain amount of Form CSII was compressed into a tablet under 5 kN pressure with the dies of a Φ6 mm round tooling by the manual tablet press, and the tablet was kept under 5 kN pressure for 10 s. Crystalline form before and after tableting were checked by XRPD.

[8] = Stability of drug substance on storage (XRPD, HPLC); assay type: physicochemical
Protocol: A certain amount of Form CSII were stored under different conditions of 25° C./60% RH and 40° C./75% RH after packing with different conditions listed in Table 11. Crystalline forms and chemical purities were checked by XRPD and HPLC, respectively.
Sealed with desiccants and antioxidants: Put a sample into a glass vial, cover the vial with aluminum foil, and punch holes in the foil, then seal the glass vial with 2 g silica gel desiccants and 2.2 g antioxidants in an aluminum foil bag.
A certain amount of Form CSIII were stored under different conditions of 25° C./60% RH, 40° C./75% RH and 60° C./75% RH after packing with different conditions listed in Table 16. Crystalline forms were checked by XRPD.
Sealed with desiccants and antioxidants: Put a sample into a glass vial, cover the vial with aluminum foil, and punch holes in the foil, then seal the glass vial with 2 g silica gel desiccant and 2.2 g antioxidant in an aluminum foil bag.

[9] = 25° C./60% RH, sealed with desiccant and antioxidant
[10] = 40° C./75% RH, sealed with desiccant and antioxidant

| Structure (SMILES) | Bulk density (ρ0) [1] | Compressibility index [1] | Tapped density (ρf) [1] | Average particle size ([2]; ultrasonication time 0 s) | D10 ([2]; ultrasonication time 0 s) | D50 ([2]; ultrasonication time 0 s) | D90 ([2]; ultrasonication time 0 s) | Average particle size ([2]; ultrasonication time 60 s) | D10 ([2]; ultrasonication time 60 s) | D50 ([2]; ultrasonication time 60 s) | D90 ([2]; ultrasonication time 60 s) | Tensile strength [3] | Morphology [4] | Solubility in FaSSIF [5] | Solubility in FeSSIF [5] | Solubility in FaSSIF, times that of prior art Form A [5] | Solubility in FeSSIF, times that of prior art Form A [5] | Time the form keeps stable [8, 9] | Time the form keeps stable [8, 10] | other results |
| --- | --- | --- | --- | --- | --- | --- | --- | --- | --- | --- | --- | --- | --- | --- | --- | --- | --- | --- | --- | --- |
| Br.Br.CCC[C@H](N[C@H]1CCc2cc(F)cc(F)c2C1)C(=O)Nc1cn(C(C)(C)CNCC(C)(C)C)cn1 [Form A, (S)-2-(((S)-6,8-difluoro-1,2,3,4-tetrahydronaphthalen-2-yl)amino)-N-(1-(2-methyl-1-(neopentylamino)propan-2-yl)-1H-imidazol-4-yl) pentanamide, reference compound] | 0.251 g/mL | 10.8% | 0.282 g/mL | 646 μm | 21.2 μm | 415 μm | 1640 μm | 629 μm | 14.4 μm | 356 μm | 1660 μm | 0.37 MPa | agglomerates | 6.7 | 7.6 | – | – | – | – | Solubility in water, class by standards of Chinese Pharmacopoeia and United States Pharmacopoeia (physchem): slightly soluble |
| Br.Br.CCC[C@H](N[C@H]1CCc2cc(F)cc(F)c2C1)C(=O)Nc1cn(C(C)(C)CNCC(C)(C)C)cn1 [Form CSII, (S)-2-(((S)-6,8-difluoro-1,2,3,4-tetrahydronaphthalen-2-yl)amino)-N-(1-(2-methyl-1-(neopentylamino)propan-2-yl)-1H-imidazol-4-yl) pentanamide] | 0.49 g/mL | 5.3% | 0.51 g/mL | 198 μm | 21.9 μm | 157 μm | 435 μm | 119 μm | 10.3 μm | 81.7 μm | 282 μm | 0.68 MPa | uniform plate crystalline form | 9.8 | 11.7 | 1.5 times | 1.5 times | at least 9 months | at least 6 months | Crystalline form after formulation process [6]: remains stable after the formulation process; Crystalline form after tableting [7]: remains stable after tableting; Solubility in water, times that of Form A (physchem): 3-5 times; solubility (physchem; 37 °C, water, thermodynamic from solid): 19 to 38 mg/mL; Purity after storage ([8]; 25° C./60% RH, 9 months, sealed with desiccants and antioxidants, HPLC): 99.43%; Purity after storage ([8]; 40° C./75% RH, 6 months, sealed with desiccants and antioxidants, HPLC): 99.42%; Purity ([8]; initial, HPLC): 99.37% |
| Br.Br.CCC[C@H](N[C@H]1CCc2cc(F)cc(F)c2C1)C(=O)Nc1cn(C(C)(C)CNCC(C)(C)C)cn1 [Form CSIII, (S)-2-(((S)-6,8-difluoro-1,2,3,4-tetrahydronaphthalen-2-yl)amino)-N-(1-(2-methyl-1-(neopentylamino)propan-2-yl)-1H-imidazol-4-yl) pentanamide] | – | – | – | – | – | – | – | – | – | – | – | – | uniform plate crystalline form | 8.7 | 11.7 | 1.3 times | 1.5 times | at least 3 months | at least 3 months | Time the form keeps stable ([8]; 60° C./75% RH, sealed with desiccants and antioxidants): at least 2 months |
